Laboratory results: patent US12052991B2, “Substituted pyridinyloxybenzenes and salts thereof and use thereof as herbicidal agents” (Bayer Aktiengesellschaft, priority 2018, dated 2024)

Legend:
Type in all cases: in vivo
[1] = test system: Echinochloa crus-galli (ECHCG); test: Herbicidal post-emergence action (Table B1); details: 1280 g/ha; rated visually after about 3 weeks; 100% = plants have died, 0% = like control plants
Method: (§1) Seeds of mono- and dicotyledonous weed plants were placed in plastic pots in sandy loam soil (doubly sown with in each case one species of mono- or dicotyledonous weed plants per pot), covered with soil and cultivated in a greenhouse under controlled growth conditions. 2 to 3 weeks after sowing, the test plants were treated at the one-leaf stage. The compounds of the invention, formulated in the form of wettable powders (WP) or as emulsion concentrates (EC), were applied onto the green parts of the plants as aqueous suspension or emulsion with addition of 0.5% additive at a water application rate of 600 liters per hectare (converted). After the test plants had been kept in the greenhouse under optimum growth conditions for about 3 weeks, the activity of the preparations was rated visually in comparison to untreated controls. For example, 100% activity=the plants have died, 0% activity=like control plants. Tables B1 to B12 below show the effects of selected compounds of the general formula (I) according to Table 1 on various harmful plants and an application rate corresponding to 1280 or 320 g/ha, which were obtained by the experimental procedure mentioned above.

[2] = test system: Poa annua (POAAN); test: Herbicidal post-emergence action (Table B3); details: rated visually after about 3 weeks, 100% = plants have died, 0% = like control plants
In short: (§2)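 Greenhouse pot-grown weeds in sandy loam, sprayed at the one-leaf stage (2–3 weeks post-sowing) with WP or EC formulations plus 0.5% additive at 600 l/ha water, at 1280 or 320 g/ha. Visual % activity versus untreated controls rated about 3 weeks later (100% = dead).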

[3] = test system: Abutilon theophrasti (ABUTH); test: Herbicidal post-emergence action (Table B5); details: rated visually after about 3 weeks, 100% = plants have died, 0% = like control plants
In short: as §2

[4] = test system: Amaranthus retroflexus (AMARE); test: Herbicidal post-emergence action (Table B6); details: visual rating about 3 weeks after treatment, 100% = plants have died, 0% = like control plants
In short: as §2

[5] = test system: Stellaria media (STEME); test: Herbicidal post-emergence action (Table B8); details: visual rating about 3 weeks after treatment, 100% = plants have died, 0% = like control plants
In short: as §2

[6] = test system: Alopecurus myosuroides (ALOMY); test: Herbicidal post-emergence action (Table B9); details: rated visually after about 3 weeks, 100% = plants have died, 0% = like control plants
Method: as §1

[7] = test system: Digitaria sanguinalis (DIGSA); test: Herbicidal post-emergence action (Table B10); details: visual rating about 3 weeks after treatment, 100% = plants have died, 0% = like control plants
Method: as §1

[8] = test system: Bassia scoparia (KCHSC); test: Herbicidal post-emergence action (Table B11); details: visual rating about 3 weeks after treatment, 100% = plants have died, 0% = like control plants
In short: as §2

[9] = test system: Veronica persica (VERPE); test: Herbicidal post-emergence action (Table B12); details: visual rating about 3 weeks after treatment, 100% = plants have died, 0% = like control plants
In short: as §2

[10] = test system: Echinochloa crus-galli (ECHCG); test: Herbicidal pre-emergence action, test C (Table C1); details: dosage 1280 g/ha; visual scoring after about 3 weeks; 100% = plants have died, 0% = like control plants
Text: (§3) Seeds of mono- and dicotyledonous weed plants were placed in plastic pots in sandy loam soil (doubly sown with one species each of mono- or dicotyledonous weed plants per pot) and covered with soil. The compounds of the invention, formulated in the form of wettable powders (WP) or as emulsion concentrates (EC), were then applied onto the surface of the covering soil as aqueous suspension or emulsion with addition of 0.5% additive at a water application rate of 600 liters per hectare (converted). After the treatment, the pots were placed in a greenhouse and kept under good growth conditions for the test plants. After about 3 weeks, the effect of the preparations was scored visually in comparison with untreated controls as percentages. For example, 100% activity=the plants have died, 0% activity=like control plants. Tables C1 to C12 below show the effects of selected compounds of the general formula (I) according to Table 1 on various harmful plants and an application rate corresponding to 1280 or 320 g/ha, which were obtained by the experimental procedure mentioned above.

[11] = test system: Lolium rigidum (LOLRI); test: Herbicidal pre-emergence action, test C (Table C2); details: dosage 1280 g/ha; visual scoring after about 3 weeks; 100% = plants have died, 0% = like control plants
Text: as §3

[12] = test system: Poa annua (POAAN); test: Herbicidal pre-emergence action, test C (Table C3); details: visual scoring after about 3 weeks, 100% = plants have died, 0% = like control plants
In short: (§4)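 % herbicidal effect, visual, vs untreated; 0% = as control, 100% = plants dead. Scored ~3 wk post-application. Rate 1280 or 320 g/ha onto covering soil pre-emergence.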

[13] = test system: Setaria viridis (SETVI); test: Herbicidal pre-emergence action, test C (Table C4); details: visual scoring after about 3 weeks, 100% = plants have died, 0% = like control plants
In short: as §4

[14] = test system: Abutilon theophrasti (ABUTH); test: Herbicidal pre-emergence action, test C (Table C5); details: visual scoring after about 3 weeks, 100% = plants have died, 0% = like control plants
In short: as §4

[15] = test system: Amaranthus retroflexus (AMARE); test: Herbicidal pre-emergence action, test C (Table C6); details: visual scoring after about 3 weeks, 100% = plants have died, 0% = like control plants
In short: as §4

[16] = test system: Matricaria inodora (MATIN); test: Herbicidal pre-emergence action, test C (Table C7); details: visual scoring after about 3 weeks, 100% = plants have died, 0% = like control plants
In short: as §4

[17] = test system: Stellaria media (STEME); test: Herbicidal pre-emergence action, test C (Table C8); details: visual scoring after about 3 weeks, 100% = plants have died, 0% = like control plants
In short: as §4

[18] = test system: Alopecurus myosuroides (ALOMY); test: Herbicidal pre-emergence action, test C (Table C9); details: visual scoring after about 3 weeks, 100% = plants have died, 0% = like control plants
Text: as §3

[19] = test system: Digitaria sanguinalis (DIGSA); test: Herbicidal pre-emergence action, test C (Table C10); details: visual scoring after about 3 weeks, 100% = plants have died, 0% = like control plants
In short: as §4

[20] = test system: Veronica persica (VERPE); test: Herbicidal pre-emergence action, test C (Table C12); details: visual scoring vs untreated controls
In short: as §4

[21] = test system: harmful plants ABUTH, AMARE, ECHCG, LOLRI, MATIN, POAAN, SETVI, STEME, ALOMY, DIGSA, KCHSC and VERPE; test: Herbicidal post-emergence action, summary of Tables B1-B12; details: application rate of 1280 or 320 g of active ingredient per hectare; summary in words
In short: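 Greenhouse weeds in sandy loam treated post-emergence at the one-leaf stage, 2–3 weeks after sowing, with WP or EC formulations sprayed with 0.5% additive at 600 L/ha water, 1280 or 320 g/ha. Damage rated visually after about 3 weeks versus untreated controls (0% = like control, 100% = dead).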

[22] = test system: harmful plants ABUTH, AMARE, ECHCG, LOLRI, MATIN, POAAN, SETVI, STEME, ALOMY, DIGSA, KCHSC and VERPE; test: Herbicidal pre-emergence action (test C), summary of Tables C1-C12; details: application rate of 1280 or 320 g of active ingredient per hectare; summary in words
In short: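 Pre-emergence pot test in sandy loam: WP or EC formulations were sprayed onto the covering soil with 0.5% additive at 600 L/ha water, at 1280 or 320 g/ha. Plants were kept in the greenhouse, and activity was rated visually about 3 weeks later as % versus untreated controls (100% = dead).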

[23] = test system: Bassia scoparia (KCHSC); test: Herbicidal pre-emergence action, test C (Table C11); details: dosage 1280 g/ha, visual scoring vs untreated controls
Text: as §3

SMILES | Post-emergence action against Poa annua (POAAN) ([2]; 320 g/ha) [%] | Post-emergence action against Poa annua (POAAN) ([2]; 1280 g/ha) [%] | Post-emergence action against Abutilon theophrasti (ABUTH) ([3]; 320 g/ha) [%] | Post-emergence action against Abutilon theophrasti (ABUTH) ([3]; 1280 g/ha) [%] | Post-emergence action against Amaranthus retroflexus (AMARE) ([4]; dosage 1280 g/ha) [%] | Post-emergence action against Stellaria media (STEME) ([5]; dosage 320 g/ha) [%] | Post-emergence action against Stellaria media (STEME) ([5]; dosage 1280 g/ha) [%] | Post-emergence action against Bassia scoparia (KCHSC) ([8]; dosage 1280 g/ha) [%] | Post-emergence action against Veronica persica (VERPE) ([9]; dosage 320 g/ha) [%] | Post-emergence action against Veronica persica (VERPE) ([9]; dosage 1280 g/ha) [%] | Pre-emergence action against Poa annua (POAAN) ([12]; dosage 320 g/ha) [%] | Pre-emergence action against Poa annua (POAAN) ([12]; dosage 1280 g/ha) [%] | Pre-emergence action against Setaria viridis (SETVI) ([13]; dosage 1280 g/ha) [%] | Pre-emergence action against Amaranthus retroflexus (AMARE) ([15]; dosage 320 g/ha) [%] | Pre-emergence action against Amaranthus retroflexus (AMARE) ([15]; dosage 1280 g/ha) [%] | Pre-emergence action against Stellaria media (STEME) ([17]; dosage 1280 g/ha) [%] | Pre-emergence action against Digitaria sanguinalis (DIGSA) ([19]; dosage 1280 g/ha) [%] | Pre-emergence action against Veronica persica (VERPE) ([20]; dosage 1280 g/ha) [%] | herbicidal activity against the harmful plants of Tables B1-B12 in post-emergence treatment [21] | herbicidal activity against the harmful plants of Tables C1-C12 in pre-emergence treatment [22] | other results
Cc1cccc(Oc2ncc(Cl)cc2F)c1-c1cc(C(F)F)on1 [Example 1-10] | 100 | 100 | 90 | 100 | 100 | 100 | 100 | 100 | 100 | 100 | 100 | 100 | 100 | 100 | 100 | 100 | 100 | 100 | very good herbicidal activity | very good herbicidal activity | Post-emergence action against Echinochloa crus-galli (ECHCG) [1]: 100%; Post-emergence action against Alopecurus myosuroides (ALOMY) ([6]; 320 g/ha): 100%; Post-emergence action against Alopecurus myosuroides (ALOMY) ([6]; 1280 g/ha): 100%; Post-emergence action against Digitaria sanguinalis (DIGSA) ([7]; dosage 320 g/ha): 100%; Post-emergence action against Digitaria sanguinalis (DIGSA) ([7]; dosage 1280 g/ha): 100%; Pre-emergence action against Echinochloa crus-galli (ECHCG) [10]: 90%; Pre-emergence action against Lolium rigidum (LOLRI) [11]: 90%; Pre-emergence action against Setaria viridis (SETVI) ([13]; dosage 320 g/ha): 100%; Pre-emergence action against Abutilon theophrasti (ABUTH) ([14]; dosage 320 g/ha): 100%; Pre-emergence action against Abutilon theophrasti (ABUTH) ([14]; dosage 1280 g/ha): 100%; Pre-emergence action against Matricaria inodora (MATIN) ([16]; dosage 320 g/ha): 100%; Pre-emergence action against Matricaria inodora (MATIN) ([16]; dosage 1280 g/ha): 100%; Pre-emergence action against Stellaria media (STEME) ([17]; dosage 320 g/ha): 100%; Pre-emergence action against Alopecurus myosuroides (ALOMY) ([18]; dosage 320 g/ha): 100%; Pre-emergence action against Alopecurus myosuroides (ALOMY) ([18]; dosage 1280 g/ha): 100%; Pre-emergence action against Digitaria sanguinalis (DIGSA) ([19]; dosage 320 g/ha): 100%; Pre-emergence action against Veronica persica (VERPE) ([20]; dosage 320 g/ha): 100%
Fc1cccnc1Oc1ccccc1-c1cc(C(F)F)no1 [Example 1-47] | 100 | 100 | 90 | 100 | 100 | 100 | 100 | 90 | 100 | 100 | 100 | 100 | 90 | 100 | 100 | 100 | 90 | 100 | very good herbicidal activity | very good herbicidal activity | Post-emergence action against Amaranthus retroflexus (AMARE) ([4]; dosage 320 g/ha): 90%; Post-emergence action against Bassia scoparia (KCHSC) ([8]; dosage 320 g/ha): 90%; Pre-emergence action against Stellaria media (STEME) ([17]; dosage 320 g/ha): 100%; Pre-emergence action against Bassia scoparia (KCHSC) [23]: 90%; Pre-emergence action against Veronica persica (VERPE) ([20]; dosage 320 g/ha): 90%
Cn1nc(-c2c(F)cccc2Oc2ncc(Cl)cc2F)cc1C(F)F [Example 1-61] | 100 | 100 | 100 | 100 | 100 | 100 | 100 | 100 | 100 | 100 | 90 | 100 | 90 | 100 | 100 | 100 | 100 | 100 | very good herbicidal activity | very good herbicidal activity | Post-emergence action against Amaranthus retroflexus (AMARE) ([4]; dosage 320 g/ha): 100%; Post-emergence action against Bassia scoparia (KCHSC) ([8]; dosage 320 g/ha): 100%; Pre-emergence action against Abutilon theophrasti (ABUTH) ([14]; dosage 1280 g/ha): 100%; Pre-emergence action against Bassia scoparia (KCHSC) [23]: 100%
